{
  "source": "patent US20040106685A1",
  "about": "“Method of preventing and/or treating asthma using PBPB” (COUNCIL OF SCIENTIFIC & INDUSTRIAL RESEARCH, priority 2002, published 2004)",
  "format_in_all_cases": "in vivo, BALB/c male mice",
  "key": {"[1]": {"system": "mouse model of asthma (ova sensitized mice)", "experiment": "Ova-induced airway constriction (fall of SGaw) in sensitized mice, dual-chamber whole body plethysmography", "description": "(§1) BALB/c male mice, eight-ten weeks old, weighing 18-22 grams were acclimatized for one week under the laboratory conditions. Mice were sensitized by injecting intraperitoneally 0.2 ml of saline containing 10 micrograms ovalbumin (ova) (sigma, USA) adsorbed on 2 mg aluminum hydroxide gel on days 0, 7 and 14 followed by aerosol inhalation for 5 consecutive days, from day 19 to 23 with 2% ova (in saline w/v) for 30 minutes daily. Aerosol challenge was performed by placing mice in Plexiglas chamber (20×20×10 cm^3) and ova or saline alone was aerosolized using a nebulizer (devilbiss, model 645, USA) at an airflow rate of 7 litre/minute, sham-sensitized mice received 0.2 ml of saline containing only 2 mg al(oh)3 on days, 0, 7 and 14 followed by inhalation of aerosol of saline without ova for 5 consecutive days.\n(§2) The compound PBPB (sigma, USA) was dissolved in absolute alcohol (10 mg/ml). PBPB (20ul by volume) was given orally to each mouse. To evaluate the effect of PBPB on sensitization and the development of impaired airway sensitivity (preventive effect, FIG. 1a), five groups (six mice in each) of mice were used. One group was sham-sensitized control and another group was kept as sensitized control. The remaining three groups were given orally three different concentrations of PBPB (0.1, and 10 mg/kg body weight) daily starting from first to the last day of the sensitization the sham-sensitized and sensitized control mice were given only vehicle (20 ul alcohol) in a similar fashion. Initial measurements of specific airway conductance and airway reactivity of all the animals were carried out before starting the experiment ovalbumin induced airway constriction and airway reactivity were measured after sensitization protocol was over the measurements were done as described below (example 3,4 and 5).\n(§3) To examine the therapeutic effect of PBPB on sensitized mice (therapeutic effect, FIG. ib), mice were sensitized as before without PBPB treatment and airway constriction to ova and airway reactivity to methacholine were measured as described below animals showing at least 40% fall in specific airway conductance to ova aerosol challenge were selected for this study the sensitized mice were randomly divided into 4 groups of 6 mice in each group three groups of mice were given daily three different concentrations of PBPB in 20 ul of alcohol adjusted to contain PBPB in a dose of 0.1, and 10 mg/kg body weight respectively for week fourth group was fed only 20 ul alcohol for one week to be used as sensitized control airway constriction and airway reactivity were again measured thereafter.\nAirway calibre was measured in the term of specific airway conductance (SGaw). SGaw is a measure of the airway caliber and was estimated using a dual-chamber whole body plethysmograph (Agrawal, 1981). The dual-chamber whole body plethysmograph was designed in our laboratory to suit the size of mouse (FIG. 2). The change in the box pressure in response to breathing of the housed mouse was determined with a transducer (validyne mp 45+2 cmh20) and carrier amplifier (validyne model CD 15 carrier demodulator) that were connected to the x-channel of an oscilloscope Tektronix, model 6116, USA). […]\nAnimals were acclimatized in the body box in the beginning of the study and at the time of recording the loop, each individual mouse was housed for 10 minutes to set the basal loop correctly. Values of the slopes were recorded on getting at least three similar loops. […]"}, "[2]": {"system": "mouse model of asthma (ova sensitized mice)", "experiment": "Airway reactivity to methacholine (MCh PD35) in sensitized mice", "description": "as §1\nas §2, with “The remaining three groups were given orally three different concentrations of PBPB (0.1, and 10 mg/kg body weight) daily starting from first to the last day of the sensitization the sham-sensitized and sensitized control mice were given only vehicle (20 ul alcohol) in a similar fashion.” left out\nas §3\nAirway calibre was measured in the term of specific airway conductance (SGaw). […] The change in the box pressure in response to breathing of the housed mouse was determined with a transducer (validyne mp 45+2 cmh20) and carrier amplifier (validyne model CD 15 carrier demodulator) that were connected to the x-channel of an oscilloscope Tektronix, model 6116, USA). […]"}, "[3]": {"system": "Ova-specific IgE", "experiment": "Serum ova-specific IgE levels by Elisa", "description": "(§4) In another embodiment of the present invention, wherein after testing the compound for the preventive as well as for therapeutic values in intact conscious mice, mice were sacrificed for collecting the blood and bronchoalveolar lavage (bat) fluid to measure the levels of IgE, cytokines 11-4, IL-5 and IFN-y and homophile. Ovalbumin specific IgE levels m the sera and the levels of IL-4, IL-5 and IFN-y in the BAL fluid were measured by Elisa kits. The prevalence of eosinophils was determined in BAL fluid by flow cytometry.\nas §1\n(§5) The compound PBPB (sigma, USA) was dissolved in absolute alcohol (10 mg/ml). PBPB (20ul by volume) was given orally to each mouse. […] Initial measurements of specific airway conductance and airway reactivity of all the animals were carried out before starting the experiment ovalbumin induced airway constriction and airway reactivity were measured after sensitization protocol was over the measurements were done as described below (example 3,4 and 5). […]\nSerum IgE levels were measured in all the groups of mice by Elisa (FIG. 7). Ova-specific IgE levels were measured by enzyme linked immuno sorbent assay (Elisa). […]"}, "[4]": {"system": "eosinophils in BAL fluid", "experiment": "Eosinophils in BAL fluid by flow cytometry", "description": "as §4, §1, §5\nThe levels of eosinophils in BAL fluid were detected by flowcytometry (facsvantage, Becton Dickinson, USA) using the method described by bedner et al (1999). The cells were gated on the basis of the size and fluorescence (FSC versus FL 1) and the percentage of the gated cells was determined by cell quest software. […]"}, "[5]": {"system": "IFN-gamma, IL-4 and IL-5", "experiment": "Cytokines IFN-gamma, IL-4 and IL-5 in BAL fluid by Elisa kits", "conditions": "for IL-4 in BAL fluid / IL-5 in BAL fluid / IFN-γ in BAL fluid: mean SEM, n = 4; for IL-4 in BAL fluid: sensitized 143.0 ± 3.0; for IL-5 in BAL fluid: sensitized 158.7 ± 22.5; for IFN-γ in BAL fluid: sensitized 162.0 ± 45.2; for IFN-γ:IL-4 ratio in BAL fluid: sensitized 1.1", "description": "as §4, §1, §2, §3\nThe cytokines IFN-gamma, IL-4 and IL-5 were measured in the BAL fluid by enzyme-linked ImmunoSorbent assay (Elisa) kits (BD pharmingen, USA) as per the manufacturer's protocol."}, "[6]": {"conditions": "PBPB 1 mg/kg body weight after sensitization"}, "[7]": {"conditions": "PBPB 1 mg/kg body weight during sensitization"}},
  "data": [
    {"smiles": "O=C(CBr)c1ccc(Br)cc1", "note": "[PBPB, parabromophenacyl bromide]", "values": [
      {"measurement": "fall of SGaw level from basal level after ova challenge", "setting": "[1]; preventive: oral 0.1 mg PBPB/kg body weight during sensitization, sensitized control fall 48%", "value": 17, "unit": "%"},
      {"measurement": "fall of SGaw after ova challenge, effect of further dose increase", "setting": "[1]; preventive: oral 'lo mg/kg body weight' during sensitization", "value": "did not show any additional effect"},
      {"measurement": "fall of SGaw from basal levels after ova challenge", "setting": "[1]; preventive: oral 'mg PBPB/kg body weight' (dose figure missing) during sensitization, sensitized control fall 48%", "value": 4, "unit": "%"},
      {"measurement": "SGaw levels recovered, of basal SGaw levels", "setting": "[1]; therapeutic: oral for one week to already sensitized mice, 10 mg PBPB/kg body weight", "value": 96, "unit": "%"},
      {"measurement": "SGaw levels recovered, of normal basal levels", "setting": "[1]; therapeutic: oral for one week to already sensitized mice, dose 'mg/kg body weight' (figure missing)", "value": 86, "unit": "%"},
      {"measurement": "MCh PD35, of its initial values", "setting": "[2]; preventive: treatment during sensitization, 10 mg/kg body weight", "value": 115, "unit": "%"},
      {"measurement": "MCh PD35 recovery, of its initial levels", "setting": "[2]; preventive: treatment during sensitization, dose 'mg/kg body weight' (figure missing), 24 hours after last ova challenge", "value": 93, "unit": "%"},
      {"measurement": "MCh PD35 recovered, of the basal value", "setting": "[2]; therapeutic: oral to sensitized mice already having airway hyper reactivity, 1 mg/kg body weight", "value": "over 81%"},
      {"measurement": "MCh PD35 recovery, of the basal value", "setting": "[2]; therapeutic: oral to sensitized mice already having airway hyper reactivity, 10 mg/kg body weight", "value": 94, "unit": "%"},
      {"measurement": "serum IgE levels, effect of higher dose", "setting": "[3]; preventive: 10 mg of PBPB/kg body weight during sensitization", "value": "did not show additional effect"},
      {"measurement": "mean serum IgE level lower compared to sensitized animals", "setting": "[3]; preventive: oral 1 mg/kg body weight during sensitization, sensitized mice 384±22.8 ng/ml", "value": 40, "unit": "%"},
      {"measurement": "fall in serum IgE levels compared to vehicle treated sensitized mice", "setting": "[3]; therapeutic: 1 mg/kg body weight fed for one week to already sensitized mice, p<0.05", "value": 47, "unit": "%"},
      {"measurement": "effective dose", "setting": "[4]; administration to mice during and after sensitization, inhibition of inflammation (eosinophils in BAL fluid)", "value": 1, "unit": "mg/kg body weight"},
      {"measurement": "levels of eosinophils in BAL fluid", "setting": "[4]; preventive: oral 1 mg/kg body weight during sensitization", "value": "prevented the rise in the eosinophils levels"},
      {"measurement": "levels of eosinophils in BAL fluid", "setting": "[4]; therapeutic: 1 mg/kg body weight in already sensitized mice, p<0.01 vs vehicle treated sensitized mice", "value": "reduced the levels of eosinophils significantly"},
      {"measurement": "IL-4 in BAL fluid", "setting": "[5]; [6]", "value": "42.4 ± 4.9", "unit": "pg/mL"},
      {"measurement": "IL-5 in BAL fluid", "setting": "[5]; [6]", "value": "53.4 ± 2.2", "unit": "pg/mL"},
      {"measurement": "IFN-γ in BAL fluid", "setting": "[5]; [6]", "value": "425.1 ± 54.0", "unit": "pg/mL"},
      {"measurement": "IFN-γ:IL-4 ratio in BAL fluid", "setting": "[5]; [6]", "value": 10},
      {"measurement": "IL-4 in BAL fluid", "setting": "[5]; [7]", "value": "91.0 ± 13.2", "unit": "pg/mL"},
      {"measurement": "IL-5 in BAL fluid", "setting": "[5]; [7]", "value": "75.1 ± 7.4", "unit": "pg/mL"},
      {"measurement": "IFN-γ in BAL fluid", "setting": "[5]; [7]", "value": "402 ± 14.4", "unit": "pg/mL"},
      {"measurement": "IFN-γ:IL-4 ratio in BAL fluid", "setting": "[5]; [7]", "value": 4.4}
    ]}
  ]
}
